Tests used:
Assay type in all cases: cell-based
[1] = tested on: human breast cancer cells (MCF-7); assay: Growth inhibition of human breast cancer cells (MCF-7)
Excerpt: The results shown the extent of inhibition of cell growth compared to controls expressed in percent inhibition.

[2] = tested on: normal human mammary cells (NHMC); assay: Growth inhibition of normal human mammary cells (NHMC) grown in RPMI-10; conditions: for Percent Growth Inhibition in NHMC Cells Grown in RPMI-10: RPMI-1640 with 10% fetal calf serum
Excerpt: (§1) The results shown the extent of inhibition of cell growth compared to controls expressed in percent inhibition. The results are shown as follows:
RPMI-10 refers to standard RPMI-1640 medium with 10% fetal calf serum added.

[3] = tested on: normal human mammary cells (NHMC); assay: Growth inhibition of normal human mammary cells (NHMC) grown at low calcium concentration (40 μM); conditions: calcium 40 μM
Protocol: as §1
Table 3 Percent Growth Inhibition in NHMC Cells Grown at Low Calcium Concentration (40 μM).

## N.N.[Cl][Pt][Cl] [cisplatin, cis-diamminedichloroplatinum]
[1]; 5 μL
  Percent Growth Inhibition in MCF-7 Cells: 25%
[1]; 10 μL
  Percent Growth Inhibition in MCF-7 Cells: 49%
[1]; 25 μL
  Percent Growth Inhibition in MCF-7 Cells: 92%
[1]; in words
  inhibitions on MCF-7, comparison of cisplatin and #801C: essentially the same
[2]; 1/100
  Percent Growth Inhibition in NHMC Cells Grown in RPMI-10: 88%
[2]; 1/200
  Percent Growth Inhibition in NHMC Cells Grown in RPMI-10: 46%
[2]; 1/400
  Percent Growth Inhibition in NHMC Cells Grown in RPMI-10: 0%
[2]; in words, RPMI-10
  inhibitions on NHMC, comparison of cisplatin and #801C: not significantly different
[3]; 1/100
  Percent Growth Inhibition in NHMC Cells Grown at Low Calcium Concentration (40 μM): 32%
[3]; 1/200
  Percent Growth Inhibition in NHMC Cells Grown at Low Calcium Concentration (40 μM): 31%
[3]; 1/400
  Percent Growth Inhibition in NHMC Cells Grown at Low Calcium Concentration (40 μM): 27%
